Measurements: patent US10555987B2, “GHRH agonists for the treatment of ischemic disorders” (UNIVERSITY OF MIAMI, priority 2012, dated 2020)
Marks after values point to notes of the source that are not given here. Non-standard residues stand in square brackets, D forms with d. Residues, ends and D or L forms follow the SMILES beside them. *: point of attachment. Desaminotyrosyl = O=C(CCc1ccc(O)cc1)*; NMeY = CN[C@@H](Cc1ccc(O)cc1)C(=O)O; Nle = CCCC[C@H](N)C(=O)O; Orn = NCCC[C@H](N)C(=O)O; Abu = CC[C@H](N)C(=O)O; Aoc = NCCCCCCCC(=O)O

Columns and labels:
GH release [1] = experiment: In vivo endocrine activity, GH release after intravenous administration (Table 8); conditions: rat, i.v. injection
Procedure: In vivo tests on endocrine activity of new GHRH agonists (Intravenous administration). For in vivo tests based on intravenous administration, adult male Sprague-Dawley rats were anesthetized with pentobarbital (6 mg/100/g, b.w.), and GHRH agonists were injected 20 minutes after the injection of pentobarbital. Blood samples were taken from the jugular vein (pretreated level), immediately after hGHRH(1-29)NH2 injection (as a control) or after hGHRH analogs injection. Blood samples were taken from the jugular vein 5, 15 and 30 minutes after the injection. The blood samples were centrifuged, plasma was removed and the GH level was measured by ELISA.

GHRH receptor [2] = target: T1, GHRH receptor (Homo sapiens, UniProt Q02643); experiment: GHRH receptor binding, competition with 125I-labeled JV-1-42, human pituitary membrane homogenates (Table 7); parameters: Normal human pituitaries were purchased from the National Hormone and Peptide Program; tissue National Hormone and Peptide Program (A.F. Parlow, Harbor-UCLA Medical Center, Torrance, Calif.); host or cells: normal human pituitary, membrane fraction; conditions: JI-38 = 1, Table 7
T1 sequence (Q02643 23-423): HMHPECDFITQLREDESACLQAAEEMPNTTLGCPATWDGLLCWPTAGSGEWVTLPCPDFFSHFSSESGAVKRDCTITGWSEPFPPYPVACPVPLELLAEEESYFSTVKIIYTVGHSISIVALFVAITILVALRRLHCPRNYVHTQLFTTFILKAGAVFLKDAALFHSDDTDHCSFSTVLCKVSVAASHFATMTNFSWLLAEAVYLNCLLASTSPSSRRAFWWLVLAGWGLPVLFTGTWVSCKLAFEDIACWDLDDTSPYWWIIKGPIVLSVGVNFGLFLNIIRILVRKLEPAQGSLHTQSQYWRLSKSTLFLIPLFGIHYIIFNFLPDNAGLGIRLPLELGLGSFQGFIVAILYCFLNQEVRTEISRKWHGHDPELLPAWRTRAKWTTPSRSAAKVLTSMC
Source text: Normal human pituitaries were purchased from the National Hormone and Peptide Program (A.F. Parlow, Los Angeles, County Harbor-UCLA Medical Center, Torrance, Calif.).

GHRH receptor [3] = target: T1, GHRH receptor; experiment: Receptor binding in vitro, 125I-labeled [His1,Nle27]-hGHRH(1-32)NH2, membrane receptors of human anterior pituitary cells (Table 14); conditions: for Relative affinity (Binding potency) compared to JI-38: JI-38 = 1; for Relative affinity (Binding potency) compared to hGHRH(1-29): hGHRH(1-29)NH2 = 1
GH release [4] = experiment: In vivo endocrine activity, GH release after subcutaneous administration (Table 9); conditions: rat, subcutaneous (s.c.) injection
Procedure: Subcutaneous Administration. Adult male rats were used and anesthetized with pentobarbital (6 mg/100 g, b.w.), by i.p. injection. […] Blood samples were taken from the jugular vein 5, 15 and/or 30 minutes after the injection. The blood samples were centrifuged, plasma was removed and the GH level was measured byELISA. The results are summarized in terms of potency in Table 9.

GH release [5] = experiment: GH releasing potency in vivo, subcutaneous administration (Example 14, Table 12); parameters: species or system rat; conditions: s.c.; for Serum GH level at selected time after injection (ng/ml), 0 min / Serum GH level at selected time after injection (ng/ml), 15 min / Serum GH level at selected time after injection (ng/ml), 30 min: male rats, dose 3 μg/kg, mean ± SEM
Procedure: Male Sprague-Dawley rats, weighing 200-250 g, were purchased from Charles River Laboratory (Wilmington, Mass.) and used for experiments. All animal procedures were approved by the Veterans Affairs Animal Care and Use Committee and were conducted in accordance with additional institutional guidelines as well. Briefly, groups of 5-6 animals were used in each experiment. The rats were anesthetized with 50 mg/kg of sodium pentobarbital (Nembutal, Lundbeck Inc., Deerfield, Ill.). Twenty min after inducing anesthesia, GHRH(1-29)NH2, JI-38, or new analogs were injected into the animals intravenously (i.v.) or subcutaneously (s.c.). The peptides were dissolved in 0.01 M acetic acid to get 1 μg/μl stock solution, and then diluted with 5% mannitol. Control rats received 5% mannitol only. Blood samples were collected from the jugular vein at selected times and were used for serum preparation. Concentrations of GH in rat sera were determined by ELISA. The relative potencies of tested peptides were calculated using GHRH(1-29)NH2 and JI-38 for comparison, whose potency was defined as 1. The equivalent dosage of GHRH(1-29)NH2 to reach the same level of serum growth hormone release after injection of the specific tested peptide was determined from a GHRH(1-29)NH2 standard curve using Origin 6.0 software. […] Serum GH was determined using the rat Growth Hormone ELISA kit (ALPCO Diagnostics, Mill Valley, Calif.) according to the manufacturer's instruction. Absorbance at 405 nm was measured by a Victor 3 Multi-label Counter (Perkin-Elmer, Waltham, Md.).

Relative affinity (Binding potency) vs JI-38 (GHRH receptor [2]) | Relative affinity (Binding potency) compared to JI-38 (GHRH receptor [3]) | Relative affinity (Binding potency) compared to hGHRH(1-29) (GHRH receptor [3]) | Compound | GH releasing potency in vivo relative to JI-38 (=1) (GH release [1]; 5 min after) | GH releasing potency in vivo relative to JI-38 (=1) (GH release [1]; 15 min after) | GH releasing potency in vivo relative to JI-38 (=1) (GH release [1]; 30 min after) | GH releasing potency relative to JI-38 (=1) (GH release [4]; 15 min after) | GH releasing potency relative to JI-38 (=1) (GH release [4]; 30 min after) | Serum GH level at selected time after injection (ng/ml), 0 min (GH release [5]) | Serum GH level at selected time after injection (ng/ml), 15 min (GH release [5]) | Serum GH level at selected time after injection (ng/ml), 30 min (GH release [5]; 30 min) | Relative potency compared to GHRH(1-29), 15 min (GH release [5]) | Relative potency compared to JI-38, 15 min (GH release [5]) | Relative potency compared to GHRH(1-29), 30 min (GH release [5]; 30 min) | Relative potency compared to JI-38, 30 min (GH release [5]; 30 min) | GH-releasing potency after s.c. administration (in words) (GH release [5])
1.20 | – | – | CCCC[C@H](NC(=O)[C@@H](NC(=O)[C@H](CC(=O)O)NC(=O)[C@H](CCC(N)=O)NC(=O)[C@H](CC(C)C)NC(=O)[C@H](CC(C)C)NC(=O)[C@H](CCCN)NC(=O)[C@H](CCCNC(=N)N)NC(=O)[C@H](C)NC(=O)[C@H](CO)NC(=O)[C@H](CC(C)C)NC(=O)[C@H](CCC(N)=O)NC(=O)[C@H](CC)NC(=O)[C@H](CC(C)C)NC(=O)[C@@H](NC(=O)[C@H](CCCN)NC(=O)[C@H](CCCNC(=N)N)NC(=O)[C@H](Cc1ccc(O)cc1)NC(=O)[C@H](CO)NC(=O)[C@H](CC(N)=O)NC(=O)[C@@H](NC(=O)[C@H](Cc1ccccc1)NC(=O)[C@@H](NC(=O)[C@H](C)NC(=O)[C@H](CC(=O)O)NC(=O)[C@@H](C)NC(=O)CCc1ccc(O)cc1)[C@@H](C)CC)[C@@H](C)O)C(C)C)[C@@H](C)CC)C(=O)N[C@@H](CC(=O)O)C(=O)N[C@@H](CCCNC(=N)N)C(=O)NCCCCCCCC(N)=O [Peptide P-21300, [Dat^1, D-Ala^2, Orn^12, Abu^15, Orn^21, Nle^27, Asp^28, Amc^30]hGHRH(1-30)NH2] (Desaminotyrosyl-[dA]DAIFTNSYR[Orn]VL[Abu]QLSAR[Orn]LLQDI[Nle]DR[Aoc]-NH2) | 0.39 | 0.51 | 0.81 | – | – | – | – | – | – | – | – | – | –
4.03 | 1.09 | 3.04 | CCCC[C@H](NC(=O)[C@@H](NC(=O)[C@H](CC(=O)O)NC(=O)[C@H](CCC(N)=O)NC(=O)[C@H](CC(C)C)NC(=O)[C@H](CC(C)C)NC(=O)[C@H](CCCN)NC(=O)[C@H](CCCNC(=N)N)NC(=O)[C@H](C)NC(=O)[C@H](CO)NC(=O)[C@H](CC(C)C)NC(=O)[C@H](CCC(N)=O)NC(=O)[C@H](CC)NC(=O)[C@H](CC(C)C)NC(=O)[C@@H](NC(=O)[C@H](CCCN)NC(=O)[C@H](CCCNC(=N)N)NC(=O)[C@H](Cc1ccc(O)cc1)NC(=O)[C@H](CO)NC(=O)[C@H](CCC(N)=O)NC(=O)[C@@H](NC(=O)[C@H](Cc1ccccc1)NC(=O)[C@@H](NC(=O)[C@H](C)NC(=O)[C@H](CC(=O)O)NC(=O)[C@H](C)NC(=O)[C@H](Cc1ccc(O)cc1)NC)[C@@H](C)CC)[C@@H](C)O)C(C)C)[C@@H](C)CC)C(=O)N[C@@H](CO)C(=O)N[C@@H](CCCNC(=N)N)C(=O)NC [Peptide P-27405, [N—Me-Tyr^1, Gln^8, Orn^12, Abu^15, Orn^21, Nle^27]hGHRH(1-29)NH—CH3] (H-[NMeY]ADAIFTQSYR[Orn]VL[Abu]QLSAR[Orn]LLQDI[Nle]SR-NHMe) | – | – | – | 1.60 | 1.13 | 21.8 ± 5.9 ng/mL | 227.9 ± 10.5 ng/mL | 143.3 ± 6.1 ng/mL | 62.3 | 0.99 | 135.2 | 1.21 | –
14.5 | 2.95 | 8.22 | CCCC[C@H](NC(=O)[C@@H](NC(=O)[C@H](CC(=O)O)NC(=O)[C@H](CCC(N)=O)NC(=O)[C@H](CC(C)C)NC(=O)[C@H](CC(C)C)NC(=O)[C@H](CCCN)NC(=O)[C@H](CCCNC(=N)N)NC(=O)[C@H](C)NC(=O)[C@H](CO)NC(=O)[C@H](CC(C)C)NC(=O)[C@H](CCC(N)=O)NC(=O)[C@H](CC)NC(=O)[C@H](CC(C)C)NC(=O)[C@@H](NC(=O)[C@H](CCCN)NC(=O)[C@H](CCCNC(=N)N)NC(=O)[C@H](Cc1ccc(O)cc1)NC(=O)[C@H](CO)NC(=O)[C@H](CCC(N)=O)NC(=O)[C@@H](NC(=O)[C@H](Cc1ccccc1)NC(=O)[C@@H](NC(=O)[C@H](C)NC(=O)[C@H](CC(=O)O)NC(=O)[C@H](C)NC(=O)[C@H](Cc1ccc(O)cc1)NC)[C@@H](C)CC)[C@@H](C)O)C(C)C)[C@@H](C)CC)C(=O)N[C@@H](CC(=O)O)C(=O)N[C@@H](CCCNC(=N)N)C(=O)NC [Peptide P-27406, [N—Me-Tyr^1, Gln^8, Orn^12, Abu^15, Orn^21, Nle^27, Asp^28]hGHRH(1-29) NH—CH3] (H-[NMeY]ADAIFTQSYR[Orn]VL[Abu]QLSAR[Orn]LLQDI[Nle]DR-NHMe) | – | – | – | 0.47 | 0.50 | 21.3 ± 4.8 ng/mL | 492.6 ± 21.8 ng/mL | 282 ± 17.8 ng/mL | 170 | 2.69* | 449.7 | – | significantly higher potencies at 30 minutes than at 15 minutes
– | – | – | [N—Me-Tyr^1, D-Ala^2, Gln^8, Orn^12, Abu^15, Orn^21, Nle^27, Asp^28, Apa^30]hGHRH(1-30)NH—CH2—CH3 [Peptide P-28475] | 0.19 | 0.36 | 0.92 | – | – | – | – | – | – | – | – | – | –
– | – | – | [N—Me-Tyr^1, D-Ala^2, Gln^8, Orn^12, Abu^15, Orn^21, Nle^27, Asp^28, Har^30]hGHRH(1-30)NH—CH3 [Peptide P-27450] | 0.07 | 0.11 | 0.49 | – | – | – | – | – | – | – | – | – | –
